pEC50, pIC50: −log10 of the molar value.
Experiments:
[1] = test system: Hepatitis C virus; assay: Antiviral activity against Hepatitis C virus H2B2; assay type: functional, organism-based, Hepacivirus hominis; conditions: for pEC50: Hepatitis C virus, H2B2, read-out: EC50
[2] = Inhibition of HCV genotype 2b NS5B polymerase deltaC21 mutant; parameters: species or system Hepatitis C virus subtype 2b
[3] = test system: Hepatitis C virus; assay: Antiviral activity against HCV infected in human HBI10A cells; assay type: functional, organism-based, Hepacivirus hominis
[4] = Selectivity index, ratio of CC50 for human HBI10A cells to EC50 for Hepatitis C virus; assay type: toxicity, cell-based; conditions: read-out: Ratio CC50/EC50
[5] = test system: Hepatitis C virus; assay: Inhibition of HCV genotype 1b NS5B polymerase deltaC21 mutant; assay type: functional, Hepatitis C virus subtype 1b; conditions: read-out: IC50
[6] = Cytotoxicity against human HBI10A cells; assay type: cell-based
[7] = Cytotoxicity against human HBI10A cells at 20 uM; assay type: cell-based

Structure (SMILES) | pEC50 [1] | pIC50 [2] | pEC50 [3] | selectivity ratio [4] | pIC50 [5] | CC50 ([6]; HBI10A cells, read-out: CC50) | EC50 [1] | CC50 ([6]; hbi10a) | inhibition (INH) [7]
O=c1c2ccc(N[C@H]3CC[C@@H](C(=O)O)CC3)c3c2n(c(=O)n1-c1cccc(Cl)c1)CCC3 | 4.77 | 6.31 | 4.89 | > 7.8 | 5.96 | > 100 µM | – | – | –
O=C(NC1CCN(Cc2ccccc2)CC1)c1cccc2c(=O)n(-c3cccc(Cl)c3)c(=O)[nH]c12 | 5.18 | 6.14 | 5.40 | 1.8 | 7.12 | 7 µM | – | – | –
O=C1c2cccc3c(NC4CCN(Cc5ccccc5)CC4)ccc(c23)C(=O)N1c1cccc(Br)c1 | 5.77 | 7.37 | 5.66 | 2.4 | > 7.85 | 5.2 µM | – | – | –
CC1CCC(Nc2ccc3c(=O)n(-c4cccc(Cl)c4)c(=O)n(C)c3c2)CC1 (centres undefined) | 4.80 | 5.64 | 4.66 | 1.6 | 5.28 | 36 µM | – | – | –
O=c1c2ccc(NC3CCN(Cc4ccccc4)CC3)cc2n2ccnc2n1-c1cccc(Cl)c1 | 5.59 | < 5.30 | 5.43 | 0.9 | 6.08 | 3.2 µM | – | – | –
Cc1c(NCCO)ccc2c(=O)n(-c3cccc(Cl)c3)c3nncn3c12 | – | 5.28 | 4.85 | – | 6.42 | – | Not Active | Not Active | –
O=c1c2ccc(NC3CCN(Cc4ccccc4)CC3)c3c2n(c(=O)n1-c1cccc(Cl)c1)CCC3 | 5.31 | 6.85 | 5.77 | 5.9 | 8.10 | 10 µM | – | – | –
CC(C)CNc1ccc2c(=O)n(-c3cccc(Cl)c3)c(=O)n(C)c2c1 | < 4.00 | 5.30 | 4.62 | > 4 | 5.52 | > 100 µM | – | – | –
O=c1c2cccc3c2n(c(=O)n1-c1cccc(Cl)c1)CCN3CCCO | < 4.00 | 5.11 | > 4.00 | – | 5.28 | – | – | Not Active | –
O=C(NCCO)c1cccc2c(=O)n(-c3cccc(Cl)c3)c(=O)[nH]c12 | – | < 5.00 | > 4.00 | – | < 5.00 | – | Not Active | Not Active | –
C=C[C@H]1C[N@@]2CC[C@H]1C[C@H]2[C@H](O)c1ccnc2ccc(OC)cc12 [QUININE] | – | – | – | – | – | – | – | – | Not Active
O=C(O)c1cccc(CN2CCn3c(=O)n(-c4cccc(Cl)c4)c(=O)c4cccc2c43)c1 | < 4.00 | 5.70 | 4.57 | > 3.7 | 6.89 | > 100 µM | – | – | –

Source: ChEMBL document CHEMBL1156238, “Allosteric inhibitors of hepatitis C virus NS5B polymerase thumb domain site II: structure-based design and synthesis of new templates” (Bioorg Med Chem, 2010)
